System: non-muscle invasive bladder cancer (CBNMI)
Experiment: Adjuvancy of intravesical MRB-CFI-1 and systemic cisplatin in NMIBC rats, histopathology
Format: in vivo, Fischer 344 female rats
Source text: The protocol for use of animals in research was approved by the Ethics Committee on the Use of Animals (CEUA)—UNICAMP (protocol number: 4324-1).

[1] = MNU rats, MRB-CFI-1 intravesical 20 mg/kg 6 weeks and/or cisplatin i.p. […] weekly 4 weeks, n = 7

## N.N.[Cl][Pt][Cl] [cisplatin]
MNU rats, same treatments
  decrease in the progression of urothelial neoplastic lesions, percentage of animals: 14.28%
[1]
  Carcinoma in situ (Ptis), percentage of animals: 14.28%
  Papillary carcinoma (pTa), percentage of animals: 57.14%
  Papilliferous hyperplasia, percentage of animals: 14.28%
  Urothelial carcinoma with lamina propria invasion (pT1), percentage of animals: 14.28%
Same treatments, of n = 7
  Carcinoma in situ (Ptis), number of animals: 1
  Papillary carcinoma (pTa), number of animals: 4
  Papilliferous hyperplasia, number of animals: 1
  Urothelial carcinoma with lamina propria invasion (pT1), number of animals: 1
